pKi: −log10 of the molar value. Where a name gives a salt, the structure may show the parent alone. Read-outs that look alike come from different tables or passages of the source.
Assays:
[1] = biological target: human recombinant GABA A receptor containing the alpha2, beta2, and gamma3 subunits (Homo sapiens, UniProt P47869+Q99928); assay: Radioligand competition binding assay with [3H]Ro-15-1788 (Flumazenil)
Procedure: Membranes were prepared from HEK cells expressing hGABA A alpha2beta2-gamma3 receptor, and validated to ascertain protein concentration, receptor expression and to determine the Kd of the flumazenil as well as the Ki of a standard set of compounds before being used to test new compounds.
100 ul of radioligand and 100 ul of membrane in 50 mM Tris-HCl and 0.05% F127 with 1 ul of test compound was incubated for 2 hours to allow the reaction to achieve equilibrium, and then harvested onto filter plates, dried and counted on a TopCount NXT. The data was analysed, and the Ki values were presented as the geometric mean of at least two replicates.

[2] = biological target: GABRA2-GABRB2-GABRG2 chloride currents in HEK cells (Homo sapiens (Human), UniProt P18507+P47869); assay: QPatch whole-cell patch-clamp electrophysiology, enhancement of GABA current (α2); assay type: cell-based; conditions: −60 mV, approximately EC10 GABA
Sequence of GABRA2-GABRB2-GABRG2 chloride currents in HEK cells (P47869 29-451): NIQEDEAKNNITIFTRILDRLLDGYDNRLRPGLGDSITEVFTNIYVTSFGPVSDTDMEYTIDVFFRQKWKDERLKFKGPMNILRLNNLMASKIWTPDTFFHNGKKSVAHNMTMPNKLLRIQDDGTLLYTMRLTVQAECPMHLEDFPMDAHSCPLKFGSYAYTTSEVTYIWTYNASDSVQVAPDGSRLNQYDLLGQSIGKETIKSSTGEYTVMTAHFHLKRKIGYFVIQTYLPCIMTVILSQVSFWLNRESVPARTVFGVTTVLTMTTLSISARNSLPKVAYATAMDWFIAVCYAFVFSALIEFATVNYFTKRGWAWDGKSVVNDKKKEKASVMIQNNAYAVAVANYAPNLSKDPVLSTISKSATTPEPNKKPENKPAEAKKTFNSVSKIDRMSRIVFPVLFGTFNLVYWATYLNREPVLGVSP
Sequence of GABRA2-GABRB2-GABRG2 chloride currents in HEK cells (P47870 26-512 partner): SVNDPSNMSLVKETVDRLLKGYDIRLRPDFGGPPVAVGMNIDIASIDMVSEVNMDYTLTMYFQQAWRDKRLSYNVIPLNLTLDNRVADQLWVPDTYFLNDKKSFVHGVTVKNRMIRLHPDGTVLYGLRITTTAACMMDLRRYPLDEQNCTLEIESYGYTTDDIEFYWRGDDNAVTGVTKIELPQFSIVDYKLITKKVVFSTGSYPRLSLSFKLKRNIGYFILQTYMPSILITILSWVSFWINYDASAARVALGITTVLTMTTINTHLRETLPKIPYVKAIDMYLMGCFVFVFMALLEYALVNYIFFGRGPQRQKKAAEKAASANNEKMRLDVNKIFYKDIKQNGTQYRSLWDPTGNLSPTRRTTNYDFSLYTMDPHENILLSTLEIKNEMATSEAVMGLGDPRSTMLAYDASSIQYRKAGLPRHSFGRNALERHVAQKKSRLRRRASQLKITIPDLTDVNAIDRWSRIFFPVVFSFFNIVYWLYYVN
Sequence of GABRA2-GABRB2-GABRG2 chloride currents in HEK cells (P18507 40-475): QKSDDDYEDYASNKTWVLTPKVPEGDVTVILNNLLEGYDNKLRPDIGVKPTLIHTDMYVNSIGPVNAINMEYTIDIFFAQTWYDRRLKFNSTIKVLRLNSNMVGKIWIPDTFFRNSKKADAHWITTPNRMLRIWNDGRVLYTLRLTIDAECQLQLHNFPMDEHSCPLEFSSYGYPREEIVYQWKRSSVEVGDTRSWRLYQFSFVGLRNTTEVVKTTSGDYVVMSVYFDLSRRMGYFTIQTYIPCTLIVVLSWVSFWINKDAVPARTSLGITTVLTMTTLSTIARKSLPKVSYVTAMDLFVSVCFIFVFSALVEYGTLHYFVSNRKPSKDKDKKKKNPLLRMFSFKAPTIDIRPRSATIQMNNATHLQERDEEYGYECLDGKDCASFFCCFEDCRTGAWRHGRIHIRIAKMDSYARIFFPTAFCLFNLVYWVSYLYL
Procedure: Human Embryonic Kidney (HEK) cells were transfected with a GABRA2-GABRB2-GABRG2 construct using standard techniques.
For QPatch electrophysiology testing, cells were harvested from flasks by enzymatic dissociation and resuspended in serum-free medium. Cells were typically used for electrophysiological experiments within 24 to 72 hours after splitting.
(§1) Cell suspension containing HEK cells expressing GABRA2-GABRB2-GABRG2 was placed on the QPatch instrument in serum-free medium into the instrument's cell stirrer. […] All recordings were made at room temperature (22-24° C.).
(§2) Current records were acquired at 1 KHz and filtered at 0.3 KHz using the Bessel filter. Series resistance compensation was set to 80% in the QPatch software.
(§3) All compounds were dissolved in dimethyl sulfoxide to make 30 mM or 10 mM stock solutions, which were then diluted to 1000 times the desired final concentration in dimethyl sulfoxide. These were diluted into extracellular solution to attain the final concentrations desired. […] This concentration of dimethyl sulfoxide was present in all samples.
(§4) Currents were recorded at −60 mV, using an approximately EC10 concentration of gamma-aminobutyric acid (GABA).
(§5) Compound effect (% enhancement of gamma-aminobutyric acid current) was calculated using the following formula: [((peak modulator current amplitude−leak)−(GABA current amplitude−leak))/(GABA current amplitude−leak)]*100, where ‘leak’ is leak current at −60 mV, ‘peak modulator current amplitude’ is the current elicited by co-application of gamma-aminobutyric acid and test compound, and ‘GABA current amplitude’ is the current elicited by application of gamma-aminobutyric acid alone.

[3] = biological target: GABA channels expressing the α1 subunit (GABRA1-GABRB3-GABRG2) in HEK cells (Homo sapiens (Human), UniProt P14867+P18507); assay: QPatch whole-cell patch-clamp electrophysiology, enhancement of GABA current (α1); assay type: cell-based; conditions: −60 mV, approximately EC10 GABA
Sequence of GABA channels expressing the α1 subunit (GABRA1-GABRB3-GABRG2) in HEK cells (P14867 28-456): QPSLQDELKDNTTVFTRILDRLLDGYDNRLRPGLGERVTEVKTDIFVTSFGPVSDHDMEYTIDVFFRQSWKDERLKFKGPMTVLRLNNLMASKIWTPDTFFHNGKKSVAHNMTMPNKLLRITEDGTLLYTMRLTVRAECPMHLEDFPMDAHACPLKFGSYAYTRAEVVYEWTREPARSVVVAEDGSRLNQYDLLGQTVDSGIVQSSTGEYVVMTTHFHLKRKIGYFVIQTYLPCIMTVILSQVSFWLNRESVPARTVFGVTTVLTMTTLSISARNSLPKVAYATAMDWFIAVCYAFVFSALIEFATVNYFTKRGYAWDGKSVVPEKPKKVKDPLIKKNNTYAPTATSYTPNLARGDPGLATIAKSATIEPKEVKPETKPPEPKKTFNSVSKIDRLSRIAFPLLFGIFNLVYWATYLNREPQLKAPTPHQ
Sequence of GABA channels expressing the α1 subunit (GABRA1-GABRB3-GABRG2) in HEK cells (P28472 26-473 partner): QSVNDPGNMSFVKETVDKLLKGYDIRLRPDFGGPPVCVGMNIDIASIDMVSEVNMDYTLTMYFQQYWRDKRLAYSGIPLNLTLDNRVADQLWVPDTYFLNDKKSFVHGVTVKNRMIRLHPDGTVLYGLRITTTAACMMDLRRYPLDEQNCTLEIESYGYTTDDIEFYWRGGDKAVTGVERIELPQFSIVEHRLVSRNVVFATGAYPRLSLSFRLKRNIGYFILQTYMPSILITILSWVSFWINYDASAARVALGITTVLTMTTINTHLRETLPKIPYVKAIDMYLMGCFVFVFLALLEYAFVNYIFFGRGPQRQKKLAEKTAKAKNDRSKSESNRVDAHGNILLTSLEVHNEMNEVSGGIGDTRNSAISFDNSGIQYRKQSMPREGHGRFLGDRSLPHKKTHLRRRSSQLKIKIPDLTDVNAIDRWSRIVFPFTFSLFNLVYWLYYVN
Sequence of GABA channels expressing the α1 subunit (GABRA1-GABRB3-GABRG2) in HEK cells (P18507 40-475): as the sequence (P18507 40-475) above
Procedure: as §1, §2, §3, §4, §5
The ability of the compounds of the formula (I) to modulate the GABA channels expressing the α1 subunit (or GABRA1) can also be measured using an assay analogous to that described above but replacing the GABRA2-GABRB2-GABRG2 gene construct with the GABRA1-GABRB3-GABRG2 gene construct. All other conditions remain the same including the same cell line and conditions for cell growth.

[4] = read-out: GABA-α2 Ki, hGABA A alpha2beta2gamma3 membranes from HEK cells, geometric mean of at least two replicates

SMILES	pKi [1, 4]	α2 PAM (% enhancement of gamma-aminobutyric acid current) [2] [%]	α1 PAM (% enhancement of gamma-aminobutyric acid current) [3] [%]	pKi [1]
CNC(=O)c1ccc(-c2cc(-c3cnnc4c3ncn4C3CC3)ccc2F)cc1 [Example 11, 5′-(7-Cyclopropyl-7H-imidazo[4,5-c]pyridazin-4-yl)-2′-fluoro-N-methylbiphenyl-4-carboxamide]	7.69	60		
CCn1cnc2c(-c3ccc(F)c(-c4ccc(C(=O)NC)cc4OC)c3)cnnc21 [Example 21, 5′-(7-Ethyl-7H-imidazo[4,5-c]pyridazin-4-yl)-2′-fluoro-2-methoxy-N-methylbiphenyl-4-carboxamide]		33	−29	8.20
CCn1cnc2c(-c3cccc(-c4ccc(C(=O)N(C)C)cc4)c3)cnnc21 [Example 20, 5′-(7-Ethyl-7H-imidazo[4,5-c]pyridazin-4-yl)-N,N-dimethyl-biphenyl-4-carboxamide trifluoroacetate salt]	6.65			
CCn1cnc2c(-c3ccc(F)c(-c4ccc(C(=O)N(C)C)cc4OC)c3)cnnc21 [Example 22, 5′-(7-Ethyl-7H-imidazo[4,5-c]pyridazin-4-yl)-2′-fluoro-2-methoxy-N,N-dimethylbiphenyl-4-carboxamide]		23	−1	7.09
CN1Cc2cc(-c3cc(-c4cnnc5c4ncn5C4CC4)ccc3F)ccc2C1=O [Example 10, 5-[5-(7-Cyclopropyl-7H-imidazo[4,5-c]pyridazin-4-yl)-2-fluorophenyl]-2-methyl-2,3-dihydro-1H-isoindol-1-one]	7.26	36	−12	
CCn1cnc2c(-c3ccc(F)c(-c4ccc(C(N)=O)cc4)c3)cnnc21 [Example 14, 5′-(7-Ethyl-7H-imidazo[4,5-c]pyridazin-4-yl)-2′-fluorobiphenyl-4-carboxamide]	8.12	11	−55	
CCn1cnc2c(-c3ccc(F)c(-c4cc(F)cc(C(=O)NC)c4)c3)cnnc21.O=C(O)C(F)(F)F [Example 19, 5′-(7-Ethyl-7H-imidazo[4,5-c]pyridazin-4-yl)-2′,5-difluoro-N-methylbiphenyl-3-carboxamide trifluoroacetate salt]	7.29	66	14	
CC(C)n1cnc2c(-c3ccc(F)c(-c4ccc5c(c4)CN(C)C5=O)c3)cnnc21 [Example 2, 5-{2-Fluoro-5-[7-(propan-2-yl)-7H-imidazo[4,5-c]pyridazin-4-yl]phenyl}-2-methyl-2,3-dihydro-1H-isoindol-1-one]	8.19	106	12	
CCn1cnc2c(-c3ccc(F)c(-c4ccc5c(c4)C(=O)NC5)c3)cnnc21 [Example 6, 6-[5-(7-Ethyl-7H-imidazo[4,5-c]pyridazin-4-yl)-2-fluorophenyl]-2,3-dihydro-1H-isoindol-1-one]	7.09	10	−61	
CCn1cnc2c(-c3ccc(F)c(-c4cc(C(=O)N(C)C)ccc4F)c3)cnnc21 [Example 7, 5′-(7-Ethyl-7H-imidazo[4,5-c]pyridazin-4-yl)-2′,6-difluoro-N,N-dimethylbiphenyl-3-carboxamide]	7.51	47		
CCn1cnc2c(-c3ccc(F)c(-c4cccc(C(N)=O)c4)c3)cnnc21.O=C(O)C(F)(F)F [Example 15, 5′-(7-Ethyl-7H-imidazo[4,5-c]pyridazin-4-yl)-2′-fluorobiphenyl-3-carboxamide trifluoroacetate salt]	7.69	40	−34	
CCn1cnc2c(-c3ccc(F)c(-c4ccc(C(=O)N(C)C)c(F)c4)c3)cnnc21 [Example 17, 5′-(7-Ethyl-7H-imidazo[4,5-c]pyridazin-4-yl)-2′,3-difluoro-N,N-dimethylbiphenyl-4-carboxamide trifluoroacetate salt]	7.28			
CNC(=O)c1ccc(F)c(-c2cc(-c3cnnc4c3ncn4C3CC3)ccc2F)c1 [Example 8, 5′-(7-Cyclopropyl-7H-imidazo[4,5-c]pyridazin-4-yl)-2′,6-difluoro-N-methyl-biphenyl-3-carboxamide]	7.54			
CCn1cnc2c(-c3ccc(F)c(-c4ccc(C(=O)NC(C)C)cc4)c3)cnnc21 [Example 18, 5′-(7-Ethyl-7H-imidazo[4,5-c]pyridazin-4-yl)-2′-fluoro-N-(propan-2-yl)biphenyl-4-carboxamide trifluoroacetate salt]	7.71			
CC(C)n1cnc2c(-c3ccc(F)c(-c4ccc(C(N)=O)cc4)c3)cnnc21 [Example 12, 2′-Fluoro-5′-[7-(propan-2-yl)-7H-imidazo[4,5-c]pyridazin-4-yl]biphenyl-4-carboxamide]	7.97	48		
CCn1cnc2c(-c3ccc(F)c(-c4cc(C(=O)N(C)C)ccc4OC)c3)cnnc21 [Example 23, 5′-(7-Ethyl-7H-imidazo[4,5-c]pyridazin-4-yl)-2′-fluoro-6-methoxy-N,N-dimethylbiphenyl-3-carboxamide]	6.47			

Source: US9802945B2, “Imidazopyridazine derivatives as modulators of the GABAA receptor activity” (Pfizer Limited, priority 2014, dated 2017)
